Legend:
Desulfovibrio vulgaris = assay: Log10 reduction of viable anaerobic bacteria in high-TDS phosphate buffer suspension (API RP 38 media vials); format: cell-based; conditions: TDS 30,000 mg l^−1, 5 = complete kill
Experimental: (§1) Aqueous systems inoculated with anaerobe and facultative anaerobe culture and having a total dissolved solids (TDS) concentration of 30,000 mg l^−1 were prepared and treated with treatment agents comprising: (a) a phosphonium compound and (b) an oxazolidine compound. The phosphonium compound (a) used was tri n-butyl n-tetradecyl phosphonium chloride (TTPC). The oxazolidine compound (b) was 4,4-dimethyloxazolidine (DMO).
(§2) A suspension of Desulfovibrio vulgaris plus Enterobacter aerogenes bacteria containing from 1×10^5 to 1×10^6 cells/mL was prepared in sterile pH 8 phosphate buffer containing sodium chloride to give the desired total dissolved solids (TDS) concentration. Aliquots of this suspension were dosed with the indicated concentrations of the compounds (a) and (b) with the concentrations being measured as ppm active. The mixtures were allowed to stand at room temperature. At the designated contact times, each mixture was sampled to determine the total number of viable cells of both Desulfovibrio vulgaris and Enterobacter aerogenes by serial 10-fold dilution into API RP 38 media vials and anaerobic acid producing media vials, respectively. The vials were incubated at 37° C. for 72 hours. Results were recorded as log10 reduction in the viable count versus the control.
(§3) The efficacy of the treatment agents was evaluated by measuring the Log10 Reduction of the anaerobic bacterium Desulfovibrio vulgaris and the facultative anaerobic bacterium Enterobacter aerogenes after contact times of 1 hour, 4 hours and 24 hours as detailed in Table 1. For TTPC the stated ppm value relates to the amount of TTPC added (active). For the 4,4-dimethyloxazolidine the stated ppm relates to the amount of 4,4-dimethyloxazolidine added (active).

Enterobacter aerogenes = assay: Log10 reduction of viable facultative anaerobic bacteria in high-TDS phosphate buffer suspension (anaerobic acid producing media vials); format: cell-based; conditions: TDS 30,000 mg l^−1, 8 = complete kill
Experimental: as §1, §2, §3

[1] = DMO 40 ppm active, contact time 1 hour
[2] = DMO 40 ppm active, contact time 4 hours
[3] = DMO 40 ppm active, contact time 24 hours
[4] = DMO 80 ppm active, contact time 1 hour
[5] = DMO 80 ppm active, contact time 4 hours
[6] = DMO 80 ppm active, contact time 24 hours
[7] = TTPC 3.125 ppm active, contact time 1 hour
[8] = TTPC 3.125 ppm active, contact time 4 hours
[9] = TTPC 3.125 ppm active, contact time 24 hours
[10] = TTPC 6.25 ppm active, contact time 1 hour
[11] = TTPC 6.25 ppm active, contact time 4 hours
[12] = TTPC 6.25 ppm active, contact time 24 hours

`CC1(C)COCN1` [DMO, 4,4-dimethyloxazolidine] was tested, and the “Log10 Reduction Anaerobes” value (Desulfovibrio vulgaris; [1]) was 1, the “Log10 Reduction Anaerobes” value (Desulfovibrio vulgaris; [2]) was 1 and the “Log10 Reduction Anaerobes” value (Desulfovibrio vulgaris; [3]) was 1. The “Log10 Reduction Anaerobes” value (Desulfovibrio vulgaris; [4]) was 1, the “Log10 Reduction Anaerobes” value (Desulfovibrio vulgaris; [5]) was 2 and the “Log10 Reduction Anaerobes” value (Desulfovibrio vulgaris; [6]) was 2. The “Log10 Reduction Facultative Anaerobes” value (Enterobacter aerogenes; [1]) was 0, the “Log10 Reduction Facultative Anaerobes” value (Enterobacter aerogenes; [2]) was 0 and the “Log10 Reduction Facultative Anaerobes” value (Enterobacter aerogenes; [3]) was 0. For the same compound, the “Log10 Reduction Facultative Anaerobes” value (Enterobacter aerogenes; [4]) was 0, the “Log10 Reduction Facultative Anaerobes” value (Enterobacter aerogenes; [5]) was 0 and the “Log10 Reduction Facultative Anaerobes” value (Enterobacter aerogenes; [6]) was 0.

For `CCCCCCCCCCCCCC[P+](CCCC)(CCCC)CCCC.[Cl-]` [TTPC, tri n-butyl n-tetradecyl phosphonium chloride], the “Log10 Reduction Anaerobes” value (Desulfovibrio vulgaris; [7]) was 1, the “Log10 Reduction Anaerobes” value (Desulfovibrio vulgaris; [8]) was 5 and the “Log10 Reduction Anaerobes” value (Desulfovibrio vulgaris; [9]) was 5. The “Log10 Reduction Anaerobes” value (Desulfovibrio vulgaris; [10]) was 2, the “Log10 Reduction Anaerobes” value (Desulfovibrio vulgaris; [11]) was 5 and the “Log10 Reduction Anaerobes” value (Desulfovibrio vulgaris; [12]) was 5. For the same compound, the “Log10 Reduction Facultative Anaerobes” value (Enterobacter aerogenes; [7]) was 1, the “Log10 Reduction Facultative Anaerobes” value (Enterobacter aerogenes; [8]) was 2 and the “Log10 Reduction Facultative Anaerobes” value (Enterobacter aerogenes; [9]) was 4. The “Log10 Reduction Facultative Anaerobes” value (Enterobacter aerogenes; [10]) was 3, the “Log10 Reduction Facultative Anaerobes” value (Enterobacter aerogenes; [11]) was 4 and the “Log10 Reduction Facultative Anaerobes” value (Enterobacter aerogenes; [12]) was 5.

Reference: patent publication US10004233B2, “Relating to treatment of water” (BWA WATER ADDITIVES UK LIMITED, priority 2015, dated 2018)
